“Also recorded” adds a separate entry of the source.
Tests used:
IL-10 = assay: Quantitative PCR of hard palate mucosa around the injury, IL-10; assay type: in vivo, mice; conditions: vs blank scaffold
From the text: (§1) FTY720 is a sphingosine-1-phosphate receptor analogue that is linked to LY6C^lo (anti-inflammatory) monocytes and M2 (Pro-regenerative) macrophages attraction. According to one embodiment, for analysis of lymphocyte populations, cells are stained for flow cytometry with one or more of the following antibodies: Zombie NIR™ Fixable Viability Kit (Biolegend), PE anti-mouse MERTK (Mer) Antibody (Biolegend), Brilliant Violet 711™ anti-mouse CD64 (FcγRI) Antibody (Biolegend), Brilliant Violet 510™ anti-mouse Ly-6C Antibody (Biolegend), FITC anti-mouse CD206 (MMR) Antibody (Biolegend), Brilliant Violet 421™ anti-mouse/human CD11b Antibody (Biolegend). […]
(§2) According to one embodiment, during oral cavity wound healing following injury, there is predominantly a pro-inflammatory lymphocytic infiltrate. […] According to one embodiment, the IL assessment is performed in samples with and without scaffold placement, and includes using quantitative PCR of hard palate mucosa at day 3, 5, and 7 and comparing results to controls. In at least one embodiment, serum is collected and evaluated for levels of IL1, IL6, IL10 and VEGF using ELIZA to determine if there are systemic alterations in inflammatory and vasculogenic gene regulation and compared to uninjured controls. […]

LY6C^lo monocytes = assay: Flow cytometry of hard palate mucosa in ONF model, monocytes; assay type: in vivo, mice
From the text: (§3) FTY720 is a sphingosine-1-phosphate receptor analogue that is linked to LY6C^lo (anti-inflammatory) monocytes and M2 (Pro-regenerative) macrophages attraction. According to one embodiment, for analysis of lymphocyte populations, cells are stained for flow cytometry with one or more of the following antibodies: Zombie NIR™ Fixable Viability Kit (Biolegend), PE anti-mouse MERTK (Mer) Antibody (Biolegend), Brilliant Violet 711™ anti-mouse CD64 (FcγRI) Antibody (Biolegend), Brilliant Violet 510™ anti-mouse Ly-6C Antibody (Biolegend), FITC anti-mouse CD206 (MMR) Antibody (Biolegend), Brilliant Violet 421™ anti-mouse/human CD11b Antibody (Biolegend). In various embodiments, to detect and sort for anti-inflammatory LY6C^lo monocytes and M2 Macrophages, real-time polymerase chain reaction (PCR) analysis is performed with iQ SYBR green supermix (Bio-Rad, 1708882) in a Bio-Rad iCycler for 40 cycles to assess the expression of inflammatory IL-1, IL-4 and IL-6 and anti-inflammatory IL-10 and transcription factor Sox2, which is related to keratinocyte migration and proliferation. In one or more embodiments, slides are stained for H&E and Phospho-histone 3 to assess keratinocytes undergoing mitosis.
In various embodiments, flow cytometry of inflammatory cells is performed to characterize monocyte and macrophage phenotypes. In one or more embodiments, for analysis of lymphocyte populations, hard palate mucosa is harvested and digested in 1 mg/ml collagenase I (Sigma) for 45 minutes at 37 degrees Celsius. In at least one embodiment, the digested mucosa is filtered through a cell strainer to obtain a single cell suspension. According to one embodiment, the single-cell suspensions are stained for live cells using either Zombie Green or Zombie NIR (Biolegend) dyes in cell-culture grade PBS per manufacturer instructions. In various embodiments, cells are stained with cell phenotyping antibodies in a 1:1 volume ratio of 3% FBS and Brilliant Stain Buffer (BD Biosciences) according to standard procedures and analyzed on a FACS AriaIIIu flow cytometer (BD Biosciences). […] According to one embodiment, 30 μL of Accucheck Counting Beads (Invitrogen) are added per sample for absolute quantification of cell populations.
(§4) For analysis of lymphocyte populations, oral mucosal tissues were harvested and digested in 1 mg/ml collagenase I (Sigma) for 45 minutes at 37 degrees Celsius. […] Cells were then stained with cell phenotyping antibodies in a 1:1 volume ratio of 3% FBS and Brilliant Stain Buffer (BD Biosciences) according to standard procedures and analyzed on a FACS AriaIIIu flow cytometer (BD Biosciences). […]

[1] = In vitro release of FTY720 from controlled-release polymers; assay type: physicochemical; conditions: acid-capped L-A and methyl-ester capped H-ME polymers, incubation in vitro
From the text: In one or more embodiments, the S1PR agonist FTY720 is differentially released from polymers for controlled release (“acid-capped” L-A and “methyl-ester capped” H-ME polymers). […] According to one embodiment, an immunoregenerative approach is executed to control how M1 to M2 are spatially and temporally regulated by recruitment of anti-inflammatory monocytes (AM). In at least one embodiment, the immunoregenerative approach includes determining how localized administration of FTY720 is compartmentalized in vivo. In one or more embodiments, the phosphorylated form of the drug FTY720-P is primarily responsible for receptor mediated signaling and has much lower threshold effective concentrations than FTY720 at all of the S1PRs. In at least one embodiment, similar to S1P, FTY720-P must be dephosphorylated by LPP3 to enter the cell. According to one embodiment, once inside the cell, FTY720 can be phosphorylated by sphingosine kinase 2 (SPHK2) and subsequently exported from the cell by Spns2. In various embodiments, the ability of FTY720 to be reversibly phosphorylated allows it to undergo multiple cycles of signaling in the tissue, contributing to a sustained gradient. According to one embodiment, the regulatory roles of local gradients of FTY720 and FTY720-P are differentiable.

cutaneous wound = assay: Cutaneous wound healing / dorsal skinfold window chamber model; assay type: in vivo
From the text: In one example, FTY720 and FTY720-P are released from 1 mm diameter thin films in a cutaneous dorsal skinfold window chamber for 3 days to investigate the in vivo gradient produced by H-ME PLGA film release of S1P receptor targeting compounds.
Multiple approaches can be used to improve the recruitment of the pro-regenerative monocytes and macrophages to cutaneous wounds.

IL-6 = assay: Quantitative PCR of hard palate mucosa around the injury, IL-6; assay type: in vivo, mice; conditions: vs blank scaffold
From the text: as §1, §2

[2] = system: oronasal fistula (ONF) in the hard palate; assay: Murine oronasal fistula (ONF) model, wound healing after scaffold implantation; assay type: in vivo, mice
From the text: To understand the wound healing characteristics of the oral mucosa, the present disclosure provides an ONF model utilizing thermal injury for creating the ONF. In at least one embodiment, the ONF model permits study of the cellular and inflammatory infiltration to the wound site during the healing process. An exemplary analysis of FTY720 effects on ONF healing in the model includes, but is not limited to: 1) forming an ONF in each of a plurality of samples (e.g., mice); 2) dividing the mice into 3 groups, a no implant group, a group where blank nanofiber scaffolds are implanted, and a group where uniaxially-aligned nanofiber scaffolds with FTY720 are implanted; and 3) evaluating ONF healing results at predetermined time points (e.g., day 3, day 5, day 7, etc.).
To produce a Murine ONF model, 12 week old C57/b6 mice are obtained (for example from Jackson Laboratories) and anesthetized using intraperitoneal ketamine. According to one embodiment, the oral cavity is accessed using a retractor while the mice are spontaneously breathing. […] The time points include 0, 3, 5, and 7 days and healing of the ONF is assessed using histomorphometry while functional outcomes are measured evaluating for poor oral intake measured by body weight loss, dehydration (serum sodium using an ELIZA assay), and eventual death (Kaplan Meir curve).
After staining the slides, Hamamatsu NanoZoomer 2.0 HT processor was used to scan slides and they were then analyzed in Hamamatsu NDP.view2 Viewing Software. […]
To determine if a targeted auto-therapy induction of pro-regenerative monocytes and macrophages would lead to improved ONF healing, the delivery of FTY-720, a sphingosine analog that increases pro-regenerative monocytes and macrophages was tested via a nanofiber scaffold. […] With reference to FIGS. 13A-D, to examine the effects of the FTY-720 on the host inflammatory response, quantitative polymerase chain reaction (PCR) on the mucosal tissue surrounding the injury was performed and determined that IL-1 was decreased in the presence of FTY-720 whereas IL-6 and IL-10 were increased.

M2 macrophages = assay: Flow cytometry of hard palate mucosa in ONF model, macrophages; assay type: in vivo, mice
From the text: as §3, with “In one or more embodiments, slides are stained for H&E and Phospho-histone 3 to assess keratinocytes undergoing mitosis.” left out
In various embodiments, flow cytometry of inflammatory cells is performed to characterize monocyte and macrophage phenotypes. […] In various embodiments, cells are stained with cell phenotyping antibodies in a 1:1 volume ratio of 3% FBS and Brilliant Stain Buffer (BD Biosciences) according to standard procedures and analyzed on a FACS AriaIIIu flow cytometer (BD Biosciences). […] According to one embodiment, 30 μL of Accucheck Counting Beads (Invitrogen) are added per sample for absolute quantification of cell populations.
as §4

[3] = system: palatine and surrounding hard palate bones; assay: μCT evaluation of hard palate bones after ONF creation; assay type: in vivo, mice; conditions: following ONF creation
Procedure: According to one embodiment, similar to humans, the critical wound healing time point is immediately following hard palate injury (or surgery) and fistula healing is unlikely after this critical time period. To assess the critical wound healing time, in at least one embodiment, ONFs are created in Murine models and standard histomorphologic evaluation of the mice following injury at day 0, 3, 5, 7, and 14 days is performed. According to one embodiment, the specimens are assessed using H+E staining of coronal sections in […] (10 male and 10 female) each to evaluate: the width of the ONF, the presence or absence of inflammatory infiltrate at the wound edges, the formation of a basement membrane in the healing areas (using type IV collagen and laminin staining). In at least one embodiment, the exposure of the maxillary and palatine bones as well as the surrounding maxillary structures are evaluated using micro-computed tomography (μCT) imaging.
According to one embodiment, ONF area width is measured at each of the time points and compared to controls. […] In various embodiments, to measure the proliferative and apoptosis response following oral injury, proliferation and apoptosis are assessed. […]

IL-1 = assay: Quantitative PCR of hard palate mucosa around the injury, IL-1; assay type: in vivo, mice; conditions: vs blank scaffold
From the text: as §1, §2

S1PRs = conditions: all of the S1PRs; cited from earlier work
[4] = cutaneous wound, local delivery

CCCCCCCCc1ccc(CCC(N)(CO)CO)cc1 [FTY720]
IL-10 expression (IL-10): increased | LY6C^lo % of total CD11B+ cells (LY6C^lo monocytes; day 3, flow cytometry, implanted scaffold, blank 12.7±5.7): 22.5±5.6% | LY6Clo monocytes in wound bed (LY6C^lo monocytes; day 3, vs blank scaffolds): increased | LY6C^lo % of total cells (LY6C^lo monocytes; day 3 post-ONF formation, flow cytometry, implanted scaffold, blank 3.7%±0.9): 5.7%±0.6 | Ly6Clo monocytes in the wound bed (LY6C^lo monocytes; during healing, no time point stated, vs blank scaffolds): increase | in vitro release profile [1]: initial burst in the first hours of incubation in vitro, followed by a delay and a second phase of release between 3 and 5 days | migration of M2 macrophages into a wound bed (cutaneous wound; cutaneous wound context): increases the migration | cutaneous wound healing (cutaneous wound; [4]): improved wound healing | recruitment of anti-inflammatory (AM, Ly6C^lo) monocytes (cutaneous wound; [4]): increases the frequency; also recorded: selectively recruits non-classical Ly6C^lo monocytes; also recorded: significantly increases the proportion; also recorded: recruits AM monocytes | vascularity (cutaneous wound; cutaneous wound, thin film release, 3 days): increased vascularity | IL-6 expression (IL-6): increased | ONF wound healing ([2]; day 5, vs blank scaffold): wound contracture | ONF wound healing ([2]; day 7, vs blank scaffold): complete healing | ONF / oral cavity wound healing ([2]; no time point stated, vs blank scaffold): healing, including reepithelization; also recorded: improved wound healing; also recorded: greater injury healing and ONF prevention | M2 Macrophages % of total cells (M2 macrophages; day 3, flow cytometry, implanted scaffold, blank 1.4±0.2%): 3.7±0.5% | M2 Macrophages % of Macrophages (M2 macrophages; day 3, flow cytometry, implanted scaffold, blank 34.7±6.4%): 63.6±3.9% | migration of M2 macrophages into a wound bed (M2 macrophages; e.g. in the hard palate, no time point): increases the migration | μCT changes to the underlying bone [3]: did not reveal any changes | IL-1 expression (IL-1): decreased

CCCCCCCCc1ccc(CC[C@](N)(CO)COP(=O)(O)O)cc1 [FTY720-P]
threshold effective concentrations relative to FTY720 (S1PRs): much lower
